Data set [1] has as its system larvae of white-backed planthopper (Sogatella furcifera Horvath). Kind of data set: Test Example 2: insecticidal activity against larvae of white-backed planthopper. The conditions noted are these: 168 h. Type of data set: in vivo. The method, boiled down: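 Rice seedlings at 1.5-leaf stage were dipped 30 s in 400 ppm test composition, air-dried, and infested with five first-instar larvae. Tubes were held at 25°C, and mortality was scored at 7 days from triplicate tests.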

For data set [2], the system named is cirrus red mite (Panonychus citri McGregor). As to the kind of experiment: Test Example 4: activity to citrus red mite (Rothamstead method). Type of data set: in vivo. Conditions: two days after treatment, 25° C.; 2880 min. The method, then: Activity to cirrus red mite (Panonychus citri McGregor).
Testing method: The test was performed by Rothamstead method. A test composition was sprayed by means of a spray gun over grapefruit leaves infested with citrus red mites. After air-drying the grapefruit was left standing in a constant temperature cabinet at 25° C. Two days after the treatment, the number of survived mites was counted to calculate the mortality.

For data set [3], the system named is larvae of green rice leafhopper (Nephotettix cincticeps Uhler). Kind of data set: Test Example 5: activity against larvae of green rice leafhopper. Type of data set: in vivo. Conditions: 168 h. The method, boiled down:
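Rice seedlings at 1.5 leaf age dipped 30 seconds in 400 ppm test composition, air-dried, then infested with five second-instar larvae. Kept at 25° C; mortality scored seven days after treatment, three replicates.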

For data set [4], the system named is larvae of house mosquito (Culex pipiens pallens Coquillett). As to the kind of experiment: Test Example 6: insecticidal activity to larvae of house mosquito. Type of data set: in vivo. The conditions noted are these: 120 h. The method, boiled down:
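Twenty first-instar Culex pipiens pallens larvae placed with feed in test composition diluted in deionized water to 10 ppm. Kept at 25 °C, and mortality counted five days after treatment.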

The test system of data set [5] is larvae of 28-spotted lady beetle (Epilachna vigintioctopunctana Fabricius). Kind of data set: Test Example 8: insecticidal activity against larvae of 28-spotted lady beetle. It counts as in vivo. Conditions: 120 h. The essentials: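 Tomato leaflets dipped 30 s in 100 ppm test composition, air-dried, and placed in Petri dishes with seven second-instar larvae at 25° C. Mortality scored five days after treatment, two replicates.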

The subject of data set [6] is larvae of bug. (Togo hemipterus Scott). As to the kind of experiment: Test Example 9: insecticidal activity against larvae of bug. Type of data set: in vivo. Conditions: 120 h. The protocol:
Insecticidal activity against larvae of bug. (Togo hemipterus Scott).
Test method: Into a glass tube (1.6 cm in internal diameter and 9 cm in length), was added 1 ml of a test composition in 10 ppm concentration just to moisten the absorbent cotton. Five rice seeds and five first-instar larvae were introduced into the glass tube and the tube end was covered with a piece of Japanese paper. The glass tube was kept in a constant temperature cabinet at 25° C. Five days after treatment, the dead-and-survival was inspected to calculate the mortality (3-replication test).

A further data set can be described thus: mammalian acute toxicity. Conditions: mouse, in vivo, mice, male. The method, then:
For example, 2-t-butylimino-3-isopropyl-5-phenyltetrahydro-1,3,5-thiadiazin-4-one (compound No. 145) and 2-t-butylimino-3-isopropyl-5-p-tolyltetrahydro-1,3,5-thiadiazin-4-one (compound No. 318) have LD50 (mice, male) of 10,000 mg/kg or higher. Many other compounds of this invention have LD50 (mice, male) of 5,000 mg/kg or higher.

Data set [7] relates to 5th-instar larvae of brown planthopper. As to the kind of experiment: mortality in 7 days after spraying on 5th-instar larvae of brown planthopper. Type of data set: in vivo. Conditions: Nilaparvata lugens, 168 h; 100 ppm, 5th-instar larvae, 7 days.

Regarding `CC(C)N1C(=O)N(c2ccccc2)CSC1=NC(C)(C)C` [Compound 145, 2-t-Butylimino-3-isopropyl-5-phenyl-tetrahydro-1,3,5-thiadiazin-4-one], the mortality at 400 ppm in data set [1] and in data set [3] was 100% throughout. In data set [2], the Mortality came out at 100%. Besides, the mortality at 10 ppm in data set [4] and in data set [6] was 100% each time. The mortality at 100 ppm in data set [5] and in data set [7] was 100% each time. In addition, the LD50 in “mammalian acute toxicity” was at least 10000 mg/kg.

Broadly, the mortality is the share of the test organisms that died. Read a high mortality as a strong lethal effect. Usually LD50 stands for the dose at which mortality reaches 50%.

For the origin of these results see patent US4159328A, “Tetrahydro-1,3,5-thiadiazin-4-one derivative” (Nihon Nohyaku Co., Ltd., priority 1977, dated 1979).
